Measurements from patent US20030143731A1, “Use of heterologous transcription factors in gene therapy” (ARIAD Gene Therapeutics, Inc., priority 1995, published 2003).

Experiments:
[1] = tested on: SEAP target gene in stably transfected HT1080 cells; test: Rapamycin-dependent SEAP production in stably transfected cell clone; type: cell-based, human; conditions: stable clone, 100 nM rapamycin, SEAP assay length increased about 50-fold
Source text: We generated stable cell lines by sequential transfection of a SEAP target gene and expression vectors for ZFHD1-3FKBP and 1FRB-p65, respectively. […] From this pool, we characterized several individual clones, many of which produced high levels of SEAP in response to rapamycin. […] In an attempt to rigorously quantitate background SEAP production and induction ratio in this clone, we performed a second set of assays in which the length of the SEAP assay was increased by a factor of approximately 50 to detect any SEAP activity in untreated cells. Under these conditions, mock transfected cells produced 47 arbitrary fluorescence units, while the transfected clone produced 54 units in the absence of rapamycin and over 90,000 units at 100 nM rapamycin. […]
To simplify the task of stable transfection, we used a bicistronic expression vector that directs the production of both ZFHD1-3FKBP and 1FRB-p65 through the use of an internal ribosome entry sequence (IRES). […] All 12 clones analyzed were inducible and had little or no basal activity. […]
HT20-6 cells, which contain the pLH-ZHWT×12-IL2-SEAP reporter gene, ZFHD1-3FKBP DNA binding domain and 1FRB-p65(361-550) activation domain stably integrated, were generated by first infecting HT1080L cells with SMTN-ZFHD1-3FKBP-packaged retrovirus and selecting in medium containing […] G418. […] Eight positive clones were analyzed by addition of rapamycin. […]

[2] = tested on: SEAP target gene in HT1080 cells; test: Rapamycin-dependent transcriptional activation in transiently transfected cells (ZFHD1-3FKBP + 1FRB-p65 fusions, SEAP); type: cell-based, human
Procedure: SEAP production was not detected in cells in which one or both of the transcription factor fusion plasmids was omitted, nor was it detected in the absence of added rapamycin. When all components were present, however, SEAP secretion was detectable at rapamycin concentrations as low as 0.5 nM. […] Similar results have been obtained when the same transcription factors were used to drive rapamycin-dependent activation of an hGH reporter gene or a stably integrated version of the SEAP reporter gene made by infection with a retroviral vector. It is difficult to determine the fold activation in response to rapamycin since levels of SEAP secretion in the absence of drug are undetectable, but it is clear that in this system there is at least a 1000-fold enhancement over background levels in the absence of rapamycin.
HT1080 cells (ATCC CCL-121), derived from a human fibrosarcoma, were grown in MEM supplemented with non-essential amino acids and 10% Fetal Bovine Serum. Cells plated in 24-well dishes (Falcon, 6×10^4 cells/well) were transfected using Lipofectamine under conditions recommended by the manufacturer (GIBCO/BRL). A total of 300 ng of the following DNA was transfected into each well: 100 ng ZFHD×12-CMV-SEAP reporter gene, 2.5 ng pCGNN-ZFHD1-3FKBP or other DNA binding domain fusion, 5 ng pCGNN-1FRB-p65(361-550) or other activation domain fusion and 192.5 ng pUC118. In cases where the DNA binding domain or activation domain were omitted an equivalent amount of empty pCGNN expression vector was substituted. Following lipofection (for 5 hours) 500 μl medium containing the indicated amounts of rapamycin was added to each well. After 24 hours, medium was removed and assayed for SEAP activity as described (Spencer et al, Science 262:1019-24, 1993) using a Luminescence Spectrometer (Perkin Elmer) at 350 nm excitation and 450 nm emission. Background SEAP activity, measured from mock-transfected cells, was subtracted from each value.

[3] = tested on: hGH reporter gene in transplanted transfected HT1080 cells; test: Rapamycin-dependent production of hGH in mice bearing transfected HT1080 cells; type: in vivo
Procedure: To prepare transiently transfected HT1080 cells for injection into mice (See below), cells in 100 mm dishes (2×10^6 cells/dish) were transfected by calcium phosphate precipitation for 16 hours (Gatz, C., Kaiser, A. & Wendenburg, R. , 1991,Mol. Gen. Genet. 227, 229-237) with the following DNAs: […] of ZHWT×12-CMV-hGH, […] pCGNN-ZFHD1-3FKBP, […] pCGNN-1FRB-p65(361-550) and […] pUC118. Transfected cells were rinsed 2 times with phosphate buffered saline (PBS) and given fresh medium for 5 hours. To harvest for injection, cells were removed from the dish in Hepes Buffered Saline Solution containing 10 mM EDTA, washed with PBS/0.1% BSA/0.1% glucose and resuspended in the same at a concentration of 2×10^7 cells/ml.
In Vivo Methods: Animals, husbandry, and general procedures. Male nu/nu mice were obtained from Charles River Laboratories (Wilmington, Mass.) and allowed to acclimate for five days prior to experimentation. They were housed under sterile conditions, were allowed free access to sterile food and sterile water throughout the entire experiment, and were handled with sterile techniques throughout.
To transplant transiently transfected cells into mice, 2×10^6 transfected HT1080 cells, were suspended in […] PBS/0.1% BSA/0.1% glucose buffer, and administered into four intramuscular sites (approximately […] per site) on the haunches and flanks of the animals. Control mice received equivalent volume injections of buffer alone.
(§1) Rapamycin was formulated for in vivo administration by dissolution in equal parts of N,N-dimethylacetamide and a 9:1 (v:v) mixture of polyethylene glycol (average molecular weight of 400) and polyoxyethylene sorbitan monooleate. Concentrations of rapamycin, in the completed formulation, were sufficient to allow for in vivo administration of the appropriate dose in a 2.0 ml/kg injection volume. The accuracy of the dosing solutions was confirmed by HPLC analysis prior to intravenous administration into the tail veins. Some control mice, bearing no transfected HT1080 cells, received 10.0 mg/kg rapamycin. In addition, other control mice, bearing transfected cells, received only the rapamycin vehicle.
Blood was collected by either anesthetizing or sacrificing mice via CO2 inhalation. Anesthetized mice were used to collect […] of blood by cardiac puncture. The mice were revived and allowed to recover for subsequent blood collections. Sacrificed mice were immediately exsanguinated. Blood samples were allowed to clot for 24 hours, at 4° C., and sera were collected following centrifugation at 1000×g for 15 minutes. Serum hGH was measured by the Boehringer Mannheim non-isotopic sandwich ELISA (Cat No. 1 585 878). […] Absorbance was read at 405 nm with a 490 nm reference wavelength on a Molecular Devices microtiter plate reader. […]

[4] = Circulating half-life and concentration in mice; type: in vivo
Procedure: as §1
To examine the kinetics of rapamycin control of hGH production, we treated animals with a single dose of rapamycin and then measured hGH levels at different times thereafter. […] The slower decay of serum hGH relative to rapamycin could reflect the presence of higher tissue concentrations of rapamycin in the vicinity of the implanted cells. Alternatively, persistence of hGH production from the engineered cells may be enhanced by the stability of hGH mRNA.
Therefore, to ascertain the ability of this system to elevate and maintain circulating hGH concentrations, we performed an experiment in which animals received multiple doses of rapamycin at 16-hour intervals. This interval corresponds to the time required for hGH levels to peak and then decline approximately half-way. According to this regimen, rapamycin concentration is predicted to approach a steady-state trough concentration of 1.7 μg/ml after two doses. hGH levels should also approach a steady state trough concentration following the second dose. […] In particular, it is apparent that protein production is rapidly terminated upon withdrawal of drug.

[5] = five i.v. 10.0 mg/kg doses at 16-hour intervals

Molecule | SEAP production [1] | enhancement of SEAP over background levels in the absence of rapamycin [2] [fold] | rapamycin concentration of peak SEAP secretion ([2]; 24 hours) [nM] | lowest rapamycin concentration at which SEAP secretion was detectable ([2]; all components present, 24 hours) [nM] | half-life of hGH decline after the final rapamycin dose [3, 5] [h] | time hGH levels remained constant after the final dose [3, 5] [h] | half-life of decay of serum hGH concentration from its peak ([3]; single i.v. dose 10.0 mg/kg) | time after treatment at which serum hGH remained detectable ([3]; single i.v. dose 10.0 mg/kg) [h] | predicted steady-state trough concentration of rapamycin ([4]; after two doses, 10.0 mg/kg i.v. at 16-hour intervals) [µg/mL] | half-life ([4]; nu/nu, mouse, in vivo, iv, in these animals (mice), i.v., read-out: half-life of rapamycin (converted)) [h] | half-life of hGH clearance from the circulation ([4]; in these animals (mice))
CO[C@H]1C[C@@H]2CC[C@@H](C)[C@@](O)(O2)C(=O)C(=O)N2CCCC[C@H]2C(=O)O[C@H]([C@H](C)C[C@@H]2CC[C@@H](O)[C@H](OC)C2)CC(=O)[C@H](C)/C=C(\C)[C@@H](O)[C@@H](OC)C(=O)[C@H](C)C[C@H](C)/C=C/C=C/C=C/1C [rapamycin] | over 90,000 arbitrary fluorescence units | ≥ 1000 | 5 | 0.5 | 6.8 | 16 | approximately 11 hours | 42 | 1.7 | 4.6 | 
hGH: human growth hormone, reporter gene product secreted by engineered cells |  |  |  |  |  |  |  |  |  |  | less than four
